In patent US20260274814A1, “THIENYL COMPOUNDS FOR THE TREATMENT OF A CENTRAL NERVOUS SYSTEM DISEASE OR DISORDER” (Coreterra Therapeutics, Inc., priority 2023, published 2026):
Structures can show the parent of a compound that is named as a salt.

Test system: mice
Assay: Neuropharmacological Assay (SmartCube): automated behavioral signature of compound-treated mice compared with a database of reference drug classes
Assay type: in vivo
Conditions: for minimal effective dose: Mus musculus, ip, minimal effective dose: dose having 45% or more total activity in SmartCube, i.p., if only one dose was tested, that dose is shown, read-out: MED; for AD / AG / AN / AP / AX / CE / HL / MS / PS / SH / UK: SmartCube probability class, 3.0 mg/kg dose, i.p. 15 min before the behavioral test
Outline: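 Mice dosed i.p. 15 min before SmartCube testing, with compound in N-methyl-2-pyrrolidone/polyethylene glycol/propylene glycol. Video-captured behaviour is compared with a reference-drug signature database to give per-class probabilities, reported at 3.0 mg/kg. MED, from doses usually 0.3–10 mg/kg, is the lowest dose giving ≥45% total activity.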

| SMILES | minimal effective dose [mg/kg] | AD | AG | AN | AP | AX | CE | HL | MS | PS | SH | UK |
| --- | --- | --- | --- | --- | --- | --- | --- | --- | --- | --- | --- | --- |
| NC1Cc2ccsc2C1 (stereo not drawn) [Compound 311, 5,6-dihydro-4H-cyclopenta[b]thiophen-5-amine hydrochloride] | 3 | ++ (≥24%) | ND (^ <4%) | ND (^ <4%) | ND (^ <4%) | ND (^ <4%) | ND (^ <4%) | ND (^ <4%) | ND (^ <4%) | ND (^ <4%) | ND (^ <4%) | +++ (≥49%) |
| CNC1COc2scc(C#N)c2C1 (stereo not drawn) [Compound 322, 3-(methylamino)-3,4-dihydro-2H-thieno[2,3-b]pyran-5-carbonitrile hydrochloride] | 3 | ND (^ <4%) | ND (^ <4%) | ND (^ <4%) | +++ (≥49%) | ND (^ <4%) | ND (^ <4%) | ND (^ <4%) | ND (^ <4%) | ND (^ <4%) | ND (^ <4%) | ++ (≥24%) |
| NC1CCCc2ccsc2C1 (stereo not drawn) [Compound 323, 5,6,7,8-tetrahydro-4H-cyclohepta[b]thiophen-7-amine hydrochloride] | 3 | ++ (≥24%) | ND (^ <4%) | ND (^ <4%) | ++ (≥24%) | + (≥4%) | ND (^ <4%) | ND (^ <4%) | ND (^ <4%) | ND (^ <4%) | ND (^ <4%) | + (≥4%) |
| CNC1CCCc2sccc2C1 (stereo not drawn) [Compound 326, N-methyl-5,6,7,8-tetrahydro-4H-cyclohepta[b]thiophen-5-amine hydrochloride] | 3 | ND (^ <4%) | ND (^ <4%) | ND (^ <4%) | ND (^ <4%) | ++ (≥24%) | ND (^ <4%) | ND (^ <4%) | ND (^ <4%) | ND (^ <4%) | ND (^ <4%) | ++ (≥24%) |
| CNC1CCc2ccsc2CC1 (stereo not drawn) [Compound 327, N-methyl-5,6,7,8-tetrahydro-4H-cyclohepta[b]thiophen-6-amine hydrochloride] | 3 | ND (^ <4%) | ND (^ <4%) | ND (^ <4%) | ND (^ <4%) | ++ (≥24%) | ND (^ <4%) | ND (^ <4%) | ND (^ <4%) | ND (^ <4%) | ND (^ <4%) | +++ (≥49%) |
| CNC1(C)Cc2ccsc2C1 (stereo not drawn) [Compound 328, N, 5-dimethyl-5,6-dihydro-4H-cyclopenta[b]thiophen-5-amine hydrochloride] | 3 | ++ (≥24%) | ND (^ <4%) | ND (^ <4%) | ND (^ <4%) | + (≥4%) | ND (^ <4%) | + (≥4%) | ND (^ <4%) | ++ (≥24%) | ND (^ <4%) | + (≥4%) |
